Consider three molecules from patent US20030225047A1, “Sulfatase inhibiting progestogen-only contraceptive regimens” (priority 2002, published 2003).

For data set [1] the following is noted: humans; major metabolite; cited from earlier work.
Data set [2] deals with conversion of E1S to E2 (sulfatase activity) in T-47D breast cancer cell line. The data set can be described thus: Conversion of [3H]-E1S to E2 in T-47D human mammary cancer cells. It is filed as cell-based. The settings on record: for inhibition at 0.005 µM / inhibition at 0.5 µM / inhibition at 50 µM / IC50: Homo sapiens, T47D; for inhibition at 0.005 µM / inhibition at 0.5 µM / inhibition at 50 µM: mean ± SEM; for IC50: non-linear regression analysis; for E2 formed: 5×10^−9 mol/l [3H]-E1S, control 1805 ± 152. The procedure:
(§1) [6,7-^3H(N)]-estrone sulfate (^3H-E1S), ammonium salt (sp. act. 53 Ci/mmol) and [4-^14C]-estradiol (^14C-E2) (sp. act. 57 mCi/mmol) were purchased from New England Nuclear Division (DuPont de Nemours, Les Ulls, France). The purity of the radioisotopes was assessed by thin-layer chromatography (TLC) in the appropriate system before use. E1S, ammonium salt, unlabeled E1and E2, (analytical grade) were obtained from Sigma-Aldrich Chimle, (St Quentin Fallavier, France). 17-deacetylnorgestimate (NGMN; 13-ethyl-17-hydroxy-18,19-dinor-17α-pregn-4-en-20-yn-3-one oxime) was a gift from R. W. Johnson Pharmaceutical Research Institute, Medicinal Chemistry Department, (Raritan, N.J., USA); medroxyprogesterone acetate (MPA, 17α-acetoxy-6α-methylprogesterone) was obtained from Sigma-Aldrich Chimie. All other chemicals were of the highest grade commercially available.
(§2) The hormone-dependent MCF-7 and T-47D human mammary cancer cell lines were grown in Eagle's Minimal Essential Medium (MEM) buffered with 10 mmol/l HEPES (pH 7.6), supplemented with 2 mmol/l L-glutamine, 100 U/ml penicillin-streptomycin and 5% fetal calf serum (FCS) (A.T.G.C., Marne-la-Vallée, France) for T-47D, or 10% FCS for MCF-7 cells, and incubated at 37° C. n a humidified atmosphere of 5% CO2. Media were changed twice a week. The cells were passed every 10-12 days and replated in 75 cm^2 flasks (A.T.G.C.) at 3×10^6 cells/flask. Four days before the experiments, the cells were transferred to MEM containing 5% steroid-depleted treated FCS. The FCS had been treated overnight at 4° C. with dextran-coated charcoal (DCC)(0.1-1% w/v, DCC-FCS). The MCF-7 and T-47D cell lines used herein were deposited in accordance with the Budapest Treaty under the references MCF7_JJPRD and T47D_JJPRD on May 17, 2002 at The Belgian Co-ordinated Collections of Micro-organisms (BCCM), Laboratorium voor Moleculaire Biologie, Universiteit Gent, K. L. Ledeganckstraat 35, B-9000 Gent, Belgium and are publicly available under accession numbers LMBP 5862CB and LMBP 5863CB, respectively.
(§3) Preconfluent cells were incubated for 4 hours at 37° C. in MEM-DCC-FCS with the addition of 5×10^−9 mol/l of [^3H]-E1S, alone (control cells) or in combination with the different compounds: NGMN or MPA, dissolved in ethanol (final concentration <0.2%), at a range of concentrations of 5×10^−5-5×10^−9 mol/l. Control cells received ethanol vehicle only. After 24 hours, the medium was removed, the cells washed twice with ice-cold Hank's Buffered Saline Solution (HBSS, calcium-magnesium-free)(A.T.G.C.) and harvested by scraping. After centrifugation, the pallet was treated with 80% ethanol and the radioactivity extracted for at least 24 h at −20° C. The cellular radioactivity uptake was determined in the ethanolic supernatant and the DNA content in the remaining pellet was evaluated according to Burton Biochem Journal 62:315-323, 1956. [^14C]-E2 (5,000 dpm) was added to monitor analytical losses and unlabeled E1and E2 (50 μg) were used as carriers and reference indicators. In the total ethanolic extracts, E2 was isolated by thin layer chromatography (TLC) on silica gel 60F254 (Merck, Darmstadt, Germany), developed with chloroformi-ethylacetate (4:1, v/v) system. After visualization of the estrogens under U.V. at 254 nm, the appropriate areas were cut off into small pieces, placed in liquid scintillation vials with ethanol (0.5 ml) and allowed to extract for […]. Three ml of Opti-fluor (Packard, Rungis, France) were added and the vials were analyzed for ^3H and ^14C contents with quench correction by external standarization. The quantitative evaluation of E2 was calculated as a percentage of the total radioactivity associated with the cells and then expressed as fmol of E2 formed/mg DNA from E1S.
(§4) Data are expressed as the mean±standard error of the mean (SEM) values. Student's t-test was used to assess the significance of the differences between means; p values ≦0.05_were considered significant. […]

The test system of data set [3] is conversion of E1S to E2 (sulfatase activity) in MCF-7 breast cancer cell line. The data set can be described thus: Conversion of [3H]-E1S to E2 in MCF-7 human mammary cancer cells. The class given is cell-based. The settings on record: for inhibition at 0.005 µM / inhibition at 0.5 µM / inhibition at 50 µM / IC50: Homo sapiens; for inhibition at 0.005 µM: MCF7, compound conc 0.005 × 10^−6 mol/l; for inhibition at 0.005 µM / inhibition at 0.5 µM / inhibition at 50 µM: mean ± SEM; for inhibition at 0.5 µM: MCF7, compound conc 0.5 × 10^−6 mol/l; for inhibition at 50 µM: MCF7, compound conc 50 × 10^−6 mol/l; for IC50: MCF7, non-linear regression analysis; for E2 formed: 5×10^−9 mol/l [3H]-E1S, control 2185 ± 101. The procedure:
as §1, §2, §3, §4

[4] abbreviates: compound conc 0.005 × 10^−6 mol/l.
The mark [5] stands for this setting: compound conc 0.5 × 10^−6 mol/l.
The mark [6] stands for this setting: compound conc 0.005 × 10^−6 mol/l, mean of 3 experiments.

Molecules are shown by their SMILES.

Consider `C#C[C@]1(OC(C)=O)CC[C@H]2[C@@H]3CCC4=CC(=NO)CC[C@@H]4[C@H]3CC[C@@]21CC` (mixture of isomers) [norgestimate], for which the “fraction of norgestimate converted to norelgestromin in vivo” value in data set [1] was ≥ 80%.
As for `CC(=O)O[C@]1(C(C)=O)CC[C@H]2[C@@H]3C[C@H](C)C4=CC(=O)CC[C@]4(C)[C@H]3CC[C@@]21C` [MPA, 17α-acetoxy-6α-methylprogesterone], the results for the inhibition at 0.005 µM in data set [2] (setting [4]) and in data set [3] were 31% and 6%, respectively. Also, the inhibition at 0.5 µM in data set [2] (setting [5]) was 47%; in data set [3] it was 20%. The inhibition at 50 µM in data set [2] (compound conc 50 × 10^−6 mol/l) is 61%; in data set [3] it was 63%. Further, the IC50 in data set [2] was determined as 2150 nM; in data set [3], 26100 nM. Moreover, the E2 formed in data set [2] (setting [6]) was 1245 fmol/mg DNA; in data set [2] (setting [5]), 957 fmol/mg DNA; in data set [2] (compound conc 50 × 10^−6 mol/l), 704 fmol/mg DNA; in data set [3] (setting [4]) it was 2054 fmol/mg DNA; in data set [3] (setting [5]), 1748 fmol/mg DNA; in data set [3] (compound conc 50 × 10^−6 mol/l) it was 808 fmol/mg DNA.
In the case of `C#C[C@]1(O)CC[C@H]2[C@@H]3CCC4=C/C(=N/O)CC[C@@H]4[C@H]3CC[C@@]21CC` [NGMN, 13-ethyl-17-hydroxy-18,19-dinor-17α-pregn-4-en-20-yn-3-one oxime], the inhibition at 0.005 µM is 43% in data set [2] (setting [4]) and 25% in data set [3]. Besides, the values for the inhibition at 0.5 µM in data set [2] (setting [5]) and in data set [3] were 74% and 57%, respectively. Moreover, the inhibition at 50 µM was 97% in data set [2] (compound conc 50 × 10^−6 mol/l) and 96% in data set [3]. Further, the concentration for half-maximal inhibition (IC50) turned out to be 12.7 nM in data set [2] and 178 nM in data set [3]. Further, the E2 formed came out at 1029 fmol/mg DNA in data set [2] (setting [6]); 469 fmol/mg DNA in data set [2] (setting [5]); 54 fmol/mg DNA in data set [2] (compound conc 50 × 10^−6 mol/l); 1639 fmol/mg DNA in data set [3] (setting [4]); 940 fmol/mg DNA in data set [3] (setting [5]); 87 fmol/mg DNA in data set [3] (compound conc 50 × 10^−6 mol/l).
